# Experimental data reported in patent publication US20070117182A1, “Nucleic acids conferring transcriptional responsiveness on the RANKL gene promoter and uses thereof” (Wisconsin Alumni Research Foundation, priority 2005, published 2007).
# Legend:
# Cyp24 = experiment: RT-PCR of Cyp24 control gene in treated ST2 cells; format: cell-based, mouse; details: up to 24 hours
# Method: (§1) FIG. 2. Induction of RANKL in ST2 cells by hormones and cytokines. ST2 cells were treated with the agents indicated for periods up to 24 hours. Total RNA was isolated and subjected to RT-PCR using a primer set to mouse RANKL and beta-actin. Positive vitamin D target control genes include Cyp24 and osteopontin (OPN).
# (§2) The inventors first established a model in which RANKL is both induced in response to 1,25(OH)2D3, PTH (forskolin) and oncostatin M (OSM), and is capable of supporting osteoclast formation when co-cultured with bone marrow monocyte- or spleen cell-derived osteoclast precursors. While a number of cell types express RANKL and induce osteoclastogenesis, the historical literature strongly supports mouse ST2 cells in this capacity, prompting the inventors to focus on this stromal/preosteoblastic line for initial studies. […] Each of these components is known to both induce RANKL expression and promote osteoclast formation as well. […] Indeed, GC effects are widely observed. […] The ability of GCs to enhance osteoclast formation in coculture assays in the presence of 1,25(OH)2D3, however, is likely due also to its coordinate ability to suppress OPG.
# [1] = system: mouse D5 region (TK-mRLD5); experiment: TK-mRLD5 luciferase reporter in MG-63 cells; format: cell-based; details: 24 hours
# RANKL [2] = experiment: RT-PCR of RANKL transcripts in treated ST2 cells; format: cell-based, mouse; details: treated up to 24 hours, agent alone, vs beta-actin controls
# Method: as §1, §2
# [3] = system: D5 region of the RANKL gene (RL-CCL); experiment: pTK-RL(D5) luciferase reporter in ST2 cells; format: cell-based, mouse; details: 24 hours, agent alone
# Method: (§3) FIG. 6. Transcriptional activity of the D5 regions of the RANKL gene in the context of the TK promoter. Sequence surrounding the D5 region (1072 bp) was cloned into the pTK-luciferase vector and termed pTK-RL(D5). […] Cells were harvested after 24 hours and luciferase activity assessed. B) ST2 cells were transfected as in A above but without the VDR expression vector and evaluated as in A. C) COS-7 cells were transfected and evaluated as in A above. Luciferase was normalized using beta-gal activity. Data represent the mean of triplicate determinations (SEM). The pTK-luc control vector was unresponsive to any of the inducers (see FIG. 9). *, p<0.05 vs no treatment control.
# FIG. 11. […] A) Coordinates of the RL-D5 and the RL-D5b regions in the mouse RANKL upstream region. ST2 cells were transfected with either B) pTK-luc or pTK-mRL-D5 or C) pTK-luc and pTK-mRL-D5b and then treated with the indicated inducers. Cells were harvested after 24 hours and evaluated for luciferase activity. Luciferase was normalized using β-gal activity. Data represent the mean of triplicate determinations (SEM). *, p<0.05 vs no treatment control. **, p<0.05 vs no treatment and 1,25(OH)2D3 treated controls.
# The activity of an enhancer must be evaluated in the context of its local environment, preferentially in the context of both other enhancers and its native promoter. In the case of the RANKL gene, however, this is clearly not possible due to the numbers and the distant locations of the potential regulatory regions. To tackle this problem, the inventors isolated approximately 800 to 1100 bp fragments of each region (D1 to D5) as identified through the ChIP/Chip analysis, cloned each into a luciferase expression vector under the control of a viral thymidine kinase (TK) minimal promoter, and explored the 1,25(OH)2D3- and GC-inducible activity of each following transfection into ST2 cells. […] Nevertheless, positive results provide added support for the potential regulatory capabilities of an individual DNA fragment even when examined in isolation. […] This induction was magnified by the addition of a VDR expression vector (FIG. 6a), but was also evident in the absence of such addition (FIG. 6b). […] To ensure that the viral TK promoter background was not contributing to our evaluation, the inventors cloned the mouse RANKL promoter (−100 to +65) into pGL3, inserted RL D5 and evaluated its activity in ST2 cells as well.
# Based upon the above data, the inventors explored the possibility that similar to 1,25(OH)2D3, forskolin, PGE2 and OSM might be capable of activating transcription via the D5 fragment of the RANKL gene. […] Cells were harvested 24 hours later and evaluated for luciferase activity as in the previous experiments. […]
# [4] = system: D5 fragment in COS7 cells; experiment: pRL-D5/TK-luc reporter in COS7 cells with VDR expression vector; format: cell-based, mouse
# Method: as §3
# The activity of an enhancer must be evaluated in the context of its local environment, preferentially in the context of both other enhancers and its native promoter. In the case of the RANKL gene, however, this is clearly not possible due to the numbers and the distant locations of the potential regulatory regions. […] To ensure that the viral TK promoter background was not contributing to our evaluation, the inventors cloned the mouse RANKL promoter (−100 to +65) into pGL3, inserted RL D5 and evaluated its activity in ST2 cells as well.
# RANKL [5] = experiment: RT-PCR of RANKL in MG-63 cells; format: cell-based, human
# Method: FIG. 14. […] Cells were treated with the indicated inducers for the periods identified and isolated RNA subjected to PCR analysis for Cyp24, RANKL and b-actin. B) 1,25(OH)2D3 induces VDR binding to the conserved D5 region of the human RANKL gene in MG-63 cells. […] Two different primer sets to the human D5 region were used to assess VDR binding. VDR binding was also observed at D3-D1 but not in intervening regions or at the TSS. C) The human D5 region is transcriptionally active in MG-63 cells. […] Luciferase activity was analysed 24 hours later. […] Data are the average of triplicate determinations, SEM.
# The isolated RNA was then subjected to RT-PCR analysis using primers to a control gene (β-actin), a known vitamin D induced gene (Cyp24) and RANKL. […] These and additional data using other hormonal regulators are identical to that observed in mouse cells and it therefore appears likely that human RANKL is regulated in a fashion similar to that in mouse.
# minimal RANKL promoter = experiment: Mouse RANKL minimal promoter (-100 to +65) in pGL3, ST2 cells; format: cell-based; details: pGL3, without D5 insert
# Source text: FIG. 9. The mouse RANKL D5 region is active in the context of the mouse RANKL gene minimal promoter. Mouse RL D5 was inserted upstream of a mouse RANKL gene promoter fragment (−100 to +65) in pGL3 and its inducible activity assessed in ST2 cells. […] Data are the average of triplicate determinations, SEM.
# The activity of an enhancer must be evaluated in the context of its local environment, preferentially in the context of both other enhancers and its native promoter. In the case of the RANKL gene, however, this is clearly not possible due to the numbers and the distant locations of the potential regulatory regions. To tackle this problem, the inventors isolated approximately 800 to 1100 bp fragments of each region (D1 to D5) as identified through the ChIP/Chip analysis, cloned each into a luciferase expression vector under the control of a viral thymidine kinase (TK) minimal promoter, and explored the 1,25(OH)2D3- and GC-inducible activity of each following transfection into ST2 cells. […] Nevertheless, positive results provide added support for the potential regulatory capabilities of an individual DNA fragment even when examined in isolation. […] To ensure that the viral TK promoter background was not contributing to our evaluation, the inventors cloned the mouse RANKL promoter (−100 to +65) into pGL3, inserted RL D5 and evaluated its activity in ST2 cells as well.
smiles,measurement,setting,value
"C=C1/C(=C\C=C2/CCC[C@]3(C)[C@@H]([C@H](C)CCCC(C)(C)O)CC[C@@H]23)C[C@@H](O)C[C@@H]1O [1,25(OH)2D3]",Cyp24 induction,Cyp24,induced in a time-dependent manner
same,activity of mouse D5 region,[1],induces
same,RANKL transcripts,RANKL [2],substantial time-dependent increase
same,"luciferase activity via D5 (RL-CCL), TK promoter",[3],typical and rather striking dose response
same,stimulation via the D5 fragment in COS7 cells,[4],failed to stimulate
same,RANKL expression (RT-PCR),RANKL [5],upregulated
same,response of minimal RANKL promoter,minimal RANKL promoter,unresponsive
